ChEMBL document CHEMBL1201862, “PubChem BioAssay data set” (2004)
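All cell lines were grown in 96-well plates and treated with compound for 48 hours. GI50: concentration for 50% inhibition of growth.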 Active and inactive are the calls of the source. No stated cut-off is given here; in the data, active = GI50 up to about 1.1 µM and inactive = higher.

What was measured:
Experiment in all cases: NCI-60 cell line screen, 48 h
SK-MEL-2 = test system: SK-MEL-2
Hs-578T = test system: Hs-578T
SK-MEL-28 = test system: SK-MEL-28
NCI-H23 = test system: NCI-H23
SK-OV-3 = test system: SK-OV-3
SW-620 = test system: SW-620
MOLT-4 = test system: MOLT-4
SF-539 = test system: SF-539
CAKI-1 = test system: CAKI-1
786-0 = test system: 786-0
COLO 205 = test system: COLO 205
KM12 = test system: KM12
UACC-62 = test system: UACC-62
OVCAR-3 = test system: OVCAR-3
UACC-257 = test system: UACC-257
SK-MEL-5 = test system: SK-MEL-5
IGROV-1 = test system: IGROV-1
RPMI-8226 = test system: RPMI-8226
Malme-3M = test system: Malme-3M

Measured: GI50

CNC(=O)c1nn[nH]c1Sc1c([N+](=O)[O-])ncn1C
inactive: SK-MEL-2 > 100 µM | Hs-578T > 100 µM | SK-MEL-28 > 100 µM | NCI-H23 > 100 µM | SK-OV-3 > 100 µM | SW-620 > 100 µM | MOLT-4 > 100 µM | SF-539 > 100 µM | CAKI-1 > 100 µM | 786-0 > 100 µM | COLO 205 > 100 µM | KM12 > 100 µM | UACC-62 > 100 µM | OVCAR-3 > 100 µM | UACC-257 > 100 µM | SK-MEL-5 > 100 µM | IGROV-1 > 100 µM

Fc1ccc(/C=C2\COCC3=C2NC(=S)NC3c2ccc(F)cc2)cc1 (stereo not drawn)
inactive: SK-MEL-2 15 µM | RPMI-8226 16.5 µM | Hs-578T 24.8 µM | NCI-H23 20.6 µM | SK-OV-3 31 µM | SW-620 19.7 µM | MOLT-4 20 µM | SF-539 20 µM | CAKI-1 31.1 µM | 786-0 18.3 µM | COLO 205 20.2 µM | KM12 24.4 µM | UACC-62 17.2 µM | OVCAR-3 17.8 µM | UACC-257 18.7 µM | SK-MEL-5 19.4 µM | IGROV-1 24.9 µM

CC(C)(C)c1cc2c(O)c(c1)C(c1ccccc1)c1cc(C(C)(C)C)cc(c1O)Cc1cc(C(C)(C)C)cc(c1O)C(c1ccccc1)c1cc(C(C)(C)C)cc(c1O)C2 (stereo not drawn)
inactive: SK-MEL-2 > 100 µM | Hs-578T > 100 µM | SK-MEL-28 > 100 µM | NCI-H23 > 100 µM | SW-620 > 100 µM | MOLT-4 > 100 µM | SF-539 > 100 µM | CAKI-1 > 100 µM | 786-0 > 100 µM | COLO 205 > 100 µM | KM12 > 100 µM | UACC-62 > 100 µM | OVCAR-3 > 100 µM | UACC-257 > 100 µM | SK-MEL-5 > 100 µM | IGROV-1 > 100 µM

Cc1cc2ccccc2n2c1nc1ccccc12
inactive: RPMI-8226 > 100 µM | Hs-578T > 100 µM | SK-MEL-28 > 100 µM | NCI-H23 > 100 µM | SK-OV-3 > 100 µM | SW-620 > 100 µM | MOLT-4 > 100 µM | SF-539 > 100 µM | Malme-3M > 100 µM | 786-0 > 100 µM | COLO 205 > 100 µM | KM12 > 100 µM | UACC-62 > 100 µM | OVCAR-3 > 100 µM | UACC-257 > 100 µM | SK-MEL-5 > 100 µM | IGROV-1 > 100 µM

CCOC(=O)C1C2CCC(C2)C1(CCl)C(=O)OCC (stereo not drawn)
inactive: RPMI-8226 > 100 µM | SK-MEL-28 > 100 µM | NCI-H23 > 100 µM | SK-OV-3 > 100 µM | SW-620 > 100 µM | MOLT-4 > 100 µM | Malme-3M > 100 µM | CAKI-1 > 100 µM | 786-0 > 100 µM | COLO 205 > 100 µM | UACC-62 > 100 µM | OVCAR-3 > 100 µM | UACC-257 > 100 µM | SK-MEL-5 > 100 µM | IGROV-1 > 100 µM

CCOC(=O)CC(=O)N(c1ccc(OC)cc1)C(C(=O)OC)c1ccccc1 (stereo not drawn)
inactive: SK-MEL-2 > 100 µM | RPMI-8226 > 100 µM | Hs-578T > 100 µM | SK-MEL-28 > 100 µM | NCI-H23 > 100 µM | SW-620 > 100 µM | SF-539 > 100 µM | CAKI-1 > 100 µM | 786-0 > 100 µM | COLO 205 > 100 µM | KM12 > 100 µM | UACC-62 > 100 µM | OVCAR-3 > 100 µM | UACC-257 > 100 µM | SK-MEL-5 > 100 µM | IGROV-1 > 100 µM

O=C1CC(c2ccccc2)n2cccc21 (stereo not drawn)
inactive: SK-MEL-2 > 100 µM | RPMI-8226 > 100 µM | Hs-578T > 100 µM | SK-MEL-28 > 100 µM | NCI-H23 > 100 µM | SK-OV-3 > 100 µM | SW-620 > 100 µM | MOLT-4 > 10 µM | SF-539 > 100 µM | CAKI-1 > 100 µM | 786-0 > 100 µM | COLO 205 > 100 µM | KM12 > 100 µM | UACC-62 > 100 µM | OVCAR-3 > 100 µM | UACC-257 > 100 µM | SK-MEL-5 > 100 µM | IGROV-1 > 100 µM

Cn1c(=O)c2c(n(C)c1=O)n1c(=O)c3ccccc3nc1n2C
inactive: SK-MEL-2 > 100 µM | RPMI-8226 > 100 µM | Hs-578T 59.4 µM | SK-MEL-28 > 100 µM | NCI-H23 > 100 µM | SK-OV-3 > 100 µM | SW-620 > 100 µM | MOLT-4 > 100 µM | SF-539 > 100 µM | CAKI-1 > 100 µM | 786-0 82.2 µM | COLO 205 > 100 µM | KM12 > 100 µM | UACC-62 46.9 µM | OVCAR-3 > 100 µM | UACC-257 > 100 µM | SK-MEL-5 > 100 µM | IGROV-1 > 100 µM

CC(=O)OC[C@@]12CC[C@H]3C(C)(C)CCC[C@]3(C)[C@H]1C[C@@H](C1=CC(=O)O[C@H]1O)O2
inactive: SK-MEL-2 2.15 µM | RPMI-8226 2.15 µM | Hs-578T 4.9 µM | SK-MEL-28 1.77 µM | NCI-H23 2.04 µM | SW-620 4.81 µM | MOLT-4 1.36 µM | SF-539 2.39 µM | CAKI-1 2.64 µM | 786-0 1.8 µM | COLO 205 3.81 µM | KM12 6.75 µM | UACC-62 1.94 µM | OVCAR-3 2.1 µM | UACC-257 2.12 µM | SK-MEL-5 2.8 µM | IGROV-1 2.55 µM

Cc1cc2nc(N3C(=O)/C(=C/c4cccc([N+](=O)[O-])c4)N=C3c3ccccc3)sc2cc1C
inactive: SK-MEL-2 23.1 µM | RPMI-8226 21.1 µM | Hs-578T 24.5 µM | SK-MEL-28 57.8 µM | SK-OV-3 67.8 µM | SW-620 27 µM | MOLT-4 12.9 µM | SF-539 39.4 µM | CAKI-1 52 µM | 786-0 40.3 µM | COLO 205 36.3 µM | KM12 27.2 µM | UACC-62 33.5 µM | OVCAR-3 32 µM | UACC-257 42.6 µM | SK-MEL-5 30.1 µM | IGROV-1 12.5 µM

COc1cc(S(=O)(=O)Nc2ccc(-c3csc(N4C(=O)CSC4c4ccccc4O)n3)cc2)ccc1Cl (stereo not drawn)
inactive: SK-MEL-2 44.6 µM | RPMI-8226 60.5 µM | SK-MEL-28 24.5 µM | NCI-H23 31.5 µM | SK-OV-3 > 100 µM | SW-620 35.2 µM | MOLT-4 88.3 µM | SF-539 34.8 µM | Malme-3M 42.5 µM | CAKI-1 > 100 µM | 786-0 69.2 µM | COLO 205 24.5 µM | KM12 38.4 µM | UACC-62 29.4 µM | OVCAR-3 84.7 µM | UACC-257 27.7 µM | SK-MEL-5 58.7 µM | IGROV-1 46.3 µM

COc1ccc(/C=C(\C(=O)OCC(C)C)c2ccc(OC)c(OC)c2)cc1OC
inactive: SK-MEL-2 > 100 µM | RPMI-8226 > 100 µM | Hs-578T > 100 µM | SK-MEL-28 > 100 µM | NCI-H23 > 100 µM | SW-620 > 100 µM | MOLT-4 > 100 µM | SF-539 > 100 µM | CAKI-1 > 100 µM | 786-0 > 100 µM | COLO 205 38.4 µM | KM12 > 10 µM | UACC-62 > 100 µM | OVCAR-3 > 100 µM | UACC-257 > 100 µM | SK-MEL-5 > 100 µM | IGROV-1 > 100 µM
